According to US4309425A (priority 1980, dated 1982):
Like-named read-outs stand apart in the source and are kept apart here.

What was measured:
[1] = tested on: Puccinia graminis var. tritici; assay: whole plant or invertebrate; type: in vivo; details: 192 h, read-out: % control wheat rust in a photostability test
[2] = tested on: adult cotton boll weevils (Anthonomus grandis); assay: adult cotton boll weevils spray test; type: in vivo; details: 1% acetone solution, 24 hours
Experimental: Five adult cotton boll weevils (Anthonomus grandis) were confined in a 4-oz. wide mouth jar. These were sprayed with a 1% acetone solution of the indicated compounds. Percent mortality after 24 hours is set forth below.

Rhizoctonia solani = Rhizoctonia solani infested soil test, cotton; type: in vivo; details: 192 h, 1.5 kg/ha, 8 days
Excerpt: (§1) Rhizoctonia solani-infested soil was placed in a 900 cc cup. Compounds of this invention were mixed at a rate of 1.5 kg/ha in a section 2" wide×2" deep×4" long to simulate an in-the-row application. Five cotton seeds were planted in the treated soil. After 8 days, the cotton plants were removed and rated for disease control.

Erysiphe cichoracearum [3] = assay: cucumber powdery mildew photostability test; type: in vivo; details: Golovinomyces cichoracearum, 168 h, xenon arc 3500 foot candles 16 hours, 7 days
Experimental: (§2) Compounds of this invention are dissolved in acetone in an amount equal to 6% of the final volume and then suspended at a concentration of 20 ppm in purified water containing 25 ppm of the surfactant Alkanol® XC (sodium alkyl naphthalene sulfonate). This suspension is sprayed to the point of run-off in cucumber seedlings. When the foliage is dry, the plants are exposed to 3500 foot candles of light from a xenon arc source for a period of 16 hours. This light source approximates the spectrum of natural sunlight, and is used to assess photostability of the compounds of this invention on plant foliage. The following day, the plants are inoculated with a spore suspension of the fungus Erysiphe cichoracearum and incubated in a growth room for 7 days. Disease ratings are then made.

Erisyphe cichoracearum = assay: cucumber powdery mildew curative test; type: in vivo; details: Cucumis sativus, 144 h, sprayed day after inoculation, additional 6 days
Excerpt: Cucumber plants are inoculated with a spore suspension of the fungus Erisyphe cichoracearum and in a growth room overnight. The following day, the plants are sprayed to the point of run-off with a suspension prepared by dissolving compounds of this invention in acetone in an amount equal to 6% of the final volume and then suspended at a concentration of 20 ppm in purified water containing 25 ppm of the surfactant Alkanol® XC (sodium alkyl naphthalene sulfonate). Plants are returned to the growth room for an additional 6 days when disease ratings are then made. […] Phytotoxicity in the form of foliar burn or growth reduction was observed on some of the plants in association with disease control.

[4] = tested on: Puccinia graminis var. tritici; assay: whole plant or invertebrate; type: in vivo; details: 192 h, read-out: % control wheat rust in residual wash-off test
Venturia inaequalis [5] = assay: apple scab photostability test; type: in vivo; details: xenon arc 3500 foot candles 16 hours, 10-12 days
Experimental: as §2, with “on apple” for “in cucumber”, “Venturia inaequalis” for “Erysiphe cichoracearum”, “10-12” for “7”, “made. […] Phytotoxicity in the form of foliar burn was observed on some of the plants in association with disease control.” for “made.”

Phytophthora infestans [6] = assay: whole plant or invertebrate; type: in vivo; details: in Solanum lycopersicum, 96 h, read-out: % control tomato late blight in a residual wash-off test
adult houseflies = adult houseflies spray test; type: in vivo, housefly; details: Musca domestica; 1% acetone solutions, 24 hours
Excerpt: Twenty adult houseflies were confined in each of several cylindrical stainless steel cages (7.5 cm D×4 cm high) with wire screens of the ends. These were sprayed with 1% acetone solutions of the indicated compounds.

Erysiphe cichoracearum [7] = assay: cucumber powdery mildew residual wash-off test; type: in vivo; details: Golovinomyces cichoracearum, 168 h, 1/2 inch simulated rainfall, 7 days
Experimental: (§3) Compounds of this invention are dissolved in acetone in an amount equal to 6% of the final volume and then suspended at a concentration of 20 ppm in purified water containing 25 ppm of the surfactant Alkanol® XC (sodium alkyl naphthalene sulfonate). This suspension is sprayed to the point of run-off on cucumber seedlings. The following day, 1/2 inch of simulated rainfall is applied to the foliage of the plants. When the foliage is dry, the plants are inoculated with a spore suspension on the fungus Erysiphe cichoracearum and incubated in a growth room for 7 days. Disease ratings are then made.

[8] = tested on: Puccinia graminis var. tritici; assay: whole plant or invertebrate; type: in vivo; details: 192 h, read-out: % control wheat rust in preventive test
Venturia inaequalis [9] = assay: apple scab residual wash-off test; type: in vivo; details: 1/2 inch simulated rainfall, 10-12 days
Experimental: as §3, with “on apple” for “on cucumber”, “suspension of” for “suspension on”, “fungus Venturia inaequalis” for “fungus Erysiphe cichoracearum”, “for 10-12” for “for 7”, “made. […] Phytotoxicity in the form of foliar burn was observed on the plants in association with disease control.” for “made.”

[10] = tested on: Eggs of the beet armyworm (Spodoptera exigua); assay: beet armyworm egg (ovicidal) test, % eggs failing to hatch; type: in vivo; details: 72 h, three days, read-out: % Control (% eggs failing to hatch); for mortality at 1 %: 1% in acetone; for mortality at 200 ppm: 200 ppm in acetone
Experimental: Eggs of the beet armyworm (Spodoptera exigua), laid on cellophane discs each containing 50-75 eggs, were placed in petri dishes and lightly sprayed with 1% concentrations of the indicated compounds in acetone solution. Three days later, percent control (% eggs failing to hatch) was determined.
Eggs of the beet armyworm (Spodoptera exigua), laid on cellophane discs each containing 50-75 eggs, were placed in petri dishes and lightly sprayed with 200 ppm concentration of the indicated compounds in acetone solution. Three days later, percent control (% eggs failing to hatch) was determined.

Erysiphe cichoracearum [11] = assay: cucumber powdery mildew preventive test; type: in vivo; details: Golovinomyces cichoracearum, 168 h, 7 days
Experimental: as §3, with “day,” for “day, 1/2 inch of simulated rainfall is applied to the foliage of the plants. When the foliage is dry,”, “suspension of” for “suspension on”, “made. […] Phytotoxicity in the form of foliar burn or growth reduction was observed on some of the plants in association with disease control.” for “made.”

Pythium = Pythium infested soil test, cotton; type: in vivo; details: 1.5 kg/ha, 8 days
Excerpt: as §1, with “Pythium infested” for “Rhizoctonia solani-infested”

Phytophthora infestans [12] = type: in vivo; details: 20 ppm, 4 days
Venturia inaequalis [13] = assay: apple scab preventive test; type: in vivo; details: 10-12 days
Experimental: Compounds of this invention are dissolved in acetone in an amount equal to 6% of the final volume and then suspended at a concentration of 20 ppm in purified water containing 25 ppm of the surfactant Alkanol® XC (sodium alkyl naphthalene sulfonate). This suspension is sprayed to the point of run-off on apple seedlings. The following day, the plants are inoculated with a spore suspension of the fungus Venturia inaequalis and incubated in a growth room for 10-12 days. Disease ratings are then made. […] Phytotoxicity in the form of foliar burn was observed on some of the plants in association with disease control.

Phytophthora infestans [14] = assay: whole plant or invertebrate; type: in vivo; details: in Solanum lycopersicum, 96 h, read-out: % control tomato late blight in a photostability test

O=C1CCCN1SN(c1cc(C(F)(F)F)ccc1Cl)c1c([N+](=O)[O-])cc([N+](=O)[O-])cc1C(F)(F)F
pest or weed control at 20 ppm [1]: 100% | mortality at 1 % [2]: 100% | pest or weed control at 1500 g/ha (Rhizoctonia solani): 90% | pest or weed control at 20 ppm (Erysiphe cichoracearum [3]): 97% | pest or weed control at 20 ppm (Erisyphe cichoracearum): 100% | pest or weed control at 20 ppm [4]: 100% | pest or weed control at 20 ppm (Venturia inaequalis [5]): 50% | pest or weed control at 20 ppm (Phytophthora infestans [6]): 50% | mortality at 1 % (adult houseflies): 100% | pest or weed control at 20 ppm (Erysiphe cichoracearum [7]): 30% | pest or weed control at 20 ppm [8]: 100% | pest or weed control at 20 ppm (Venturia inaequalis [9]): 75% | mortality at 1 % [10]: 100% | pest or weed control at 20 ppm (Erysiphe cichoracearum [11]): 100% | % control Pythium (Pythium): 50%

COC(=O)CN(SN(c1cc(C(F)(F)F)ccc1Cl)c1c([N+](=O)[O-])cc([N+](=O)[O-])cc1C(F)(F)F)S(=O)(=O)c1ccc(C)cc1
pest or weed control at 20 ppm [1]: 20% | % control tomato late blight in a preventive test (Phytophthora infestans [12]): 0% | pest or weed control at 1500 g/ha (Rhizoctonia solani): 50% | pest or weed control at 20 ppm (Erysiphe cichoracearum [3]): 0% | pest or weed control at 20 ppm (Erisyphe cichoracearum): 0% | pest or weed control at 20 ppm [4]: 25% | pest or weed control at 20 ppm (Venturia inaequalis [5]): 0% | pest or weed control at 20 ppm (Phytophthora infestans [6]): 0% | pest or weed control at 20 ppm (Venturia inaequalis [13]): 0% | pest or weed control at 20 ppm (Erysiphe cichoracearum [7]): 0% | pest or weed control at 20 ppm [8]: 30% | pest or weed control at 20 ppm (Phytophthora infestans [14]): 0% | pest or weed control at 20 ppm (Venturia inaequalis [9]): 0% | pest or weed control at 20 ppm (Erysiphe cichoracearum [11]): 0% | % control Pythium (Pythium): 50%

CCCCN(SN(c1cc(C(F)(F)F)ccc1Cl)c1c([N+](=O)[O-])cc([N+](=O)[O-])cc1C(F)(F)F)S(=O)(=O)N(C)C
pest or weed control at 20 ppm [1]: 80% | mortality at 1 % [2]: 100% | pest or weed control at 1500 g/ha (Rhizoctonia solani): 0% | pest or weed control at 20 ppm (Erysiphe cichoracearum [3]): 80% | pest or weed control at 20 ppm (Erisyphe cichoracearum): 99% | pest or weed control at 20 ppm [4]: 90% | pest or weed control at 20 ppm (Venturia inaequalis [5]): 0% | pest or weed control at 20 ppm (Phytophthora infestans [6]): 93% | pest or weed control at 20 ppm (Venturia inaequalis [13]): 100% | mortality at 1 % (adult houseflies): 100% | pest or weed control at 20 ppm (Erysiphe cichoracearum [7]): 98% | pest or weed control at 20 ppm [8]: 100% | pest or weed control at 20 ppm (Phytophthora infestans [14]): 90% | pest or weed control at 20 ppm (Venturia inaequalis [9]): 100% | mortality at 1 % [10]: 100% | pest or weed control at 20 ppm (Erysiphe cichoracearum [11]): 100% | % control Pythium (Pythium): 0%

CN(SN(c1cc(C(F)(F)F)ccc1Cl)c1c([N+](=O)[O-])cc([N+](=O)[O-])cc1C(F)(F)F)S(=O)(=O)c1ccc2ccccc2c1
pest or weed control at 20 ppm [1]: 100% | mortality at 1 % [2]: 100% | pest or weed control at 1500 g/ha (Rhizoctonia solani): 0% | pest or weed control at 20 ppm (Erysiphe cichoracearum [3]): 75% | pest or weed control at 20 ppm (Erisyphe cichoracearum): 50% | pest or weed control at 20 ppm [4]: 100% | pest or weed control at 20 ppm (Venturia inaequalis [5]): 0% | pest or weed control at 20 ppm (Phytophthora infestans [6]): 100% | pest or weed control at 20 ppm (Venturia inaequalis [13]): 50% | mortality at 1 % (adult houseflies): 100% | pest or weed control at 20 ppm (Erysiphe cichoracearum [7]): 85% | pest or weed control at 20 ppm [8]: 100% | pest or weed control at 20 ppm (Phytophthora infestans [14]): 100% | pest or weed control at 20 ppm (Venturia inaequalis [9]): 100% | mortality at 1 % [10]: 100% | pest or weed control at 20 ppm (Erysiphe cichoracearum [11]): 100% | % control Pythium (Pythium): 0%

Cc1ccc(S(=O)(=O)N(C)SN(c2c(F)cc(F)cc2F)c2c([N+](=O)[O-])cc([N+](=O)[O-])cc2C(F)(F)F)cc1
pest or weed control at 20 ppm [1]: 70% | % control tomato late blight in a preventive test (Phytophthora infestans [12]): 100% | pest or weed control at 1500 g/ha (Rhizoctonia solani): 70% | pest or weed control at 20 ppm (Erysiphe cichoracearum [3]): 100% | pest or weed control at 20 ppm (Erisyphe cichoracearum): 99% | pest or weed control at 20 ppm [4]: 97% | pest or weed control at 20 ppm (Venturia inaequalis [5]): 80% | pest or weed control at 20 ppm (Phytophthora infestans [6]): 100% | pest or weed control at 20 ppm (Venturia inaequalis [13]): 100% | pest or weed control at 20 ppm (Erysiphe cichoracearum [7]): 100% | pest or weed control at 20 ppm [8]: 100% | pest or weed control at 20 ppm (Phytophthora infestans [14]): 100% | pest or weed control at 20 ppm (Venturia inaequalis [9]): 100% | pest or weed control at 20 ppm (Erysiphe cichoracearum [11]): 100% | % control Pythium (Pythium): 100%

CN(SN(c1cc(C(F)(F)F)ccc1Cl)c1c([N+](=O)[O-])cc([N+](=O)[O-])cc1C(F)(F)F)S(=O)(=O)c1ccc(Cl)cc1 [4-chloro-N-[N-(2-chloro-5-trifluoromethylphenyl)-N-(2,4-dinitro-6-trifluoromethylphenyl)aminothio]-N-methylbenzenesulfonamide]
mortality at 200 ppm [10]: 100%

COCCN(SN(c1cc(C(F)(F)F)ccc1Cl)c1c([N+](=O)[O-])cc([N+](=O)[O-])cc1C(F)(F)F)S(=O)(=O)c1ccc(C)cc1 [N-[N-[2-chloro-5-(trifluoromethyl)phenyl]-N-[2,4-dinitro-6-trifluoromethylphenyl]aminothio]-N-(2-methoxyethyl)-4-methylbenzenesulfonamide]
mortality at 200 ppm [10]: 100%
